This passage reports inhibition results from US20090075951A1, “Methods and Reagents for the Treatment of Inflammatory Disorders” (CombinatoRx, Inc., priority 2003, published 2009).

Read-outs that look alike come from different tables or passages of the source.

In this test the test system is TNFα secretion from PMA/ionomycin stimulated white blood cells from human buffy coat. Put plainly: TNFα secretion assay, PMA/ionomycin stimulation.

Protocol: Various concentrations of each test compound were added at the time of stimulation. […] After the plate was washed with 0.1% Tween 20/PBS, an HRP-luminescent substrate was added to each well and light intensity measured using a LJL Analyst plate luminometer.

Take `C[C@@H]1C[C@H]2[C@@H]3CCC4=CC(=O)C=C[C@]4(C)[C@@]3(F)[C@@H](O)C[C@]2(C)[C@@]1(O)C(=O)CO` [Dexamethasone, dexamethasone]: the inhibition at […] came out at 31.3% (read-out: inhibition of TNFα secretion, Dexamethasone 38 nM, Desipramine nM: 0, 50, 200, 799, 3197, 13000); 30% (read-out: inhibition of TNFα secretion, Dexamethasone 38 nM, Imipramine nM: 0, 99, 394, 1578, 6311, 25000); 31% (read-out: inhibition of TNFα secretion, Dexamethasone 38 nM, Nortriptyline nM: 0, 52, 208, 834, 3336, 13000); 31.1% (read-out: percent inhibition of TNFα secretion, Dexamethasone 38 nM, Amitriptyline nM: 0, 50, 199, 796, 3186, 13000); 32% (read-out: percent inhibition of TNFα secretion, Dexamethasone 38 nM, Amoxapine nM: 0, 12, 50, 199, 797, 3187); 35.6% (read-out: percent inhibition of TNFα secretion, Dexamethasone 38 nM, Clomipramine nM: 0, 45, 178, 712, 2848, 11000).
As to `CCCC1O[C@@H]2C[C@H]3[C@@H]4CCC5=CC(=O)C=C[C@]5(C)[C@H]4[C@@H](O)C[C@]3(C)[C@]2(C(=O)CO)O1` (stereo partly drawn) [Budesonide, budesonide], the inhibition at […] (read-out: inhibition of TNFα secretion, Budesonide 35 nM, Imipramine nM: 0, 99, 394, 1578, 6311, 25000) is 42.1%; the inhibition at […] (read-out: inhibition of TNFα secretion, Budesonide 35 nM, Nortriptyline nM: 0, 52, 208, 834, 3336, 13000) came to 36%; the inhibition at […] (read-out: inhibition of TNFα secretion, Budesonide 35 nM, Protriptyline nM: 0, 52, 208, 834, 3336, 13000) came out at 44.5%; the inhibition at […] (read-out: percent inhibition of TNFα secretion, Budesonide 35 nM, Amitriptyline nM: 0, 50, 199, 796, 3186, 13000) worked out at 42%; the inhibition at […] (read-out: percent inhibition of TNFα secretion, Budesonide 35 nM, Amoxapine nM: 0, 12, 50, 199, 797, 3187) was 36.7%; the inhibition at […] (read-out: percent inhibition of TNFα secretion, Budesonide 35 nM, Clomipramine nM: 0, 45, 178, 712, 2848, 11000) is 45.3%. Besides, the inhibition at […] (read-out: percent inhibition of TNFα secretion, Budesonide 35 nM, Desipramine nM: 0, 50, 200, 799, 3197, 13000) turned out to be 48.1%.
As to `CC(=O)OCC(=O)[C@@]1(OC(C)=O)[C@@H](C)C[C@H]2[C@@H]3C[C@H](F)C4=CC(=O)C=C[C@]4(C)[C@@]3(F)[C@@H](O)C[C@@]21C` [Diflorasone Diacetate], the inhibition at 0.03 µM runs as follows: (read-out: inhibition of TNFα secretion, Diflorasone Diacetate 30 nM, Desipramine nM: 0, 50, 200, 799, 3197, 13000) 25.4%; (read-out: inhibition of TNFα secretion, Diflorasone Diacetate 30 nM, Imipramine nM: 0, 99, 394, 1578, 6311, 25000) 29.6%; (read-out: inhibition of TNFα secretion, Diflorasone Diacetate 30 nM, Protriptyline nM: 0, 52, 208, 834, 3336, 13000) 28.2%; (read-out: percent inhibition of TNFα secretion, Diflorasone Diacetate 30 nM, Amitriptyline nM: 0, 50, 199, 796, 3186, 13000) 26.1%. The inhibition at 1.941 µM was 46.9% (read-out: inhibition of TNFα secretion, Diflorasone Diacetate 1941 nM, Desipramine nM: 0, 50, 200, 799, 3197, 13000); 45.8% (read-out: inhibition of TNFα secretion, Diflorasone Diacetate 1941 nM, Imipramine nM: 0, 99, 394, 1578, 6311, 25000); 45.3% (read-out: inhibition of TNFα secretion, Diflorasone Diacetate 1941 nM, Protriptyline nM: 0, 52, 208, 834, 3336, 13000); 45.2% (read-out: percent inhibition of TNFα secretion, Diflorasone Diacetate 1941 nM, Amitriptyline nM: 0, 50, 199, 796, 3186, 13000). In addition, where the note is “read-out: percent inhibition of TNFα secretion, Diflorasone Diacetate 38 nM, Clomipramine nM by grid row: r5 0, r6 12, r7 50, r8 199, r9 797, r10 3187”, the inhibition at […] was determined as 43.2%.
Regarding `C[C@]12C=CC(=O)C=C1CC[C@H]1[C@@H]3C[C@@H](O)[C@](O)(C(=O)CO)[C@@]3(C)C[C@H](O)[C@@]12F` [Triamcinolone, triamcinolone], the inhibition at […] runs as follows: (read-out: inhibition of TNFα secretion, Triamcinolone 38 nM, Desipramine nM: 0, 50, 200, 799, 3197, 13000) 16%; (read-out: inhibition of TNFα secretion, Triamcinolone 38 nM, Imipramine nM: 0, 99, 394, 1578, 6311, 25000) 16.1%; (read-out: inhibition of TNFα secretion, Triamcinolone 38 nM, Nortriptyline nM: 0, 52, 208, 834, 3336, 13000) 7.21%; (read-out: percent inhibition of TNFα secretion, Triamcinolone 38 nM, Amitriptyline nM: 0, 50, 199, 796, 3186, 13000) 10.8%; (read-out: percent inhibition of TNFα secretion, Triamcinolone 38 nM, Amoxapine nM: 0, 12, 50, 199, 797, 3187) 3.52%; (read-out: percent inhibition of TNFα secretion, Triamcinolone 38 nM, Clomipramine nM: 0, 45, 178, 712, 2848, 11000) 12.5%. Further, the inhibition at 2.434 µM runs as follows: (read-out: inhibition of TNFα secretion, Triamcinolone 2434 nM, Desipramine nM: 0, 50, 200, 799, 3197, 13000) 47.1%; (read-out: inhibition of TNFα secretion, Triamcinolone 2434 nM, Imipramine nM: 0, 99, 394, 1578, 6311, 25000) 47.2%; (read-out: inhibition of TNFα secretion, Triamcinolone 2434 nM, Nortriptyline nM: 0, 52, 208, 834, 3336, 13000) 33.7%; (read-out: inhibition of TNFα secretion, Triamcinolone 2434 nM, Protriptyline nM: 0, 52, 208, 834, 3336, 13000) 48.5%; (read-out: percent inhibition of TNFα secretion, Triamcinolone 2434 nM, Amitriptyline nM: 0, 50, 199, 796, 3186, 13000) 43.8%; (read-out: percent inhibition of TNFα secretion, Triamcinolone 2434 nM, Amoxapine nM: 0, 12, 50, 199, 797, 3187) 36.1%. In addition, the inhibition at 2.434 µM (read-out: percent inhibition of TNFα secretion, Triamcinolone 2434 nM, Clomipramine nM: 0, 45, 178, 712, 2848, 11000) is 46.9%.
Regarding `C[C@]12CCC(=O)C=C1CC[C@@H]1[C@@H]2[C@@H](O)C[C@@]2(C)[C@H]1CC[C@]2(O)C(=O)CO` [Hydrocortisone, hydrocortisone], the inhibition at […] is -1.79% (read-out: inhibition of TNFα secretion, Hydrocortisone 21 nM, Desipramine nM: 0, 50, 200, 799, 3197, 13000); -4.17% (read-out: inhibition of TNFα secretion, Hydrocortisone 21 nM, Imipramine nM: 0, 99, 394, 1578, 6311, 25000); 4.44% (read-out: inhibition of TNFα secretion, Hydrocortisone 21 nM, Nortriptyline nM: 0, 52, 208, 834, 3336, 13000); 2.86% (read-out: inhibition of TNFα secretion, Hydrocortisone 21 nM, Protriptyline nM: 0, 52, 208, 834, 3336, 13000); 9.01% (read-out: inhibition of TNFα secretion, Hydrocortisone 83 nM, Desipramine nM: 0, 50, 200, 799, 3197, 13000); 5.91% (read-out: inhibition of TNFα secretion, Hydrocortisone 83 nM, Imipramine nM: 0, 99, 394, 1578, 6311, 25000). The inhibition at […] is 13.6% (read-out: inhibition of TNFα secretion, Hydrocortisone 83 nM, Nortriptyline nM: 0, 52, 208, 834, 3336, 13000); 13.6% (read-out: inhibition of TNFα secretion, Hydrocortisone 83 nM, Protriptyline nM: 0, 52, 208, 834, 3336, 13000); -2.95% (read-out: percent inhibition of TNFα secretion, Hydrocortisone 21 nM, Amitriptyline nM: 0, 50, 199, 796, 3186, 13000); 1.78% (read-out: percent inhibition of TNFα secretion, Hydrocortisone 21 nM, Amoxapine nM: 0, 12, 50, 199, 797, 3187); -0.248% (read-out: percent inhibition of TNFα secretion, Hydrocortisone 21 nM, Clomipramine nM: 0, 45, 178, 712, 2848, 11000); 5.95% (read-out: percent inhibition of TNFα secretion, Hydrocortisone 83 nM, Amitriptyline nM: 0, 50, 199, 796, 3186, 13000). Also, the inhibition at […] is, setting by setting: (read-out: percent inhibition of TNFα secretion, Hydrocortisone 83 nM, Amoxapine nM: 0, 12, 50, 199, 797, 3187) 11.4%; (read-out: percent inhibition of TNFα secretion, Hydrocortisone 83 nM, Clomipramine nM: 0, 45, 178, 712, 2848, 11000) 9.9%. The inhibition at 1.324 µM by setting is: (read-out: inhibition of TNFα secretion, Hydrocortisone 1324 nM, Desipramine nM: 0, 50, 200, 799, 3197, 13000) 34.4%; (read-out: inhibition of TNFα secretion, Hydrocortisone 1324 nM, Imipramine nM: 0, 99, 394, 1578, 6311, 25000) 30.3%; (read-out: inhibition of TNFα secretion, Hydrocortisone 1324 nM, Nortriptyline nM: 0, 52, 208, 834, 3336, 13000) 35.7%; (read-out: inhibition of TNFα secretion, Hydrocortisone 1324 nM, Protriptyline nM: 0, 52, 208, 834, 3336, 13000) 36.8%; (read-out: percent inhibition of TNFα secretion, Hydrocortisone 1324 nM, Amitriptyline nM: 0, 50, 199, 796, 3186, 13000) 32.2%; (read-out: percent inhibition of TNFα secretion, Hydrocortisone 1324 nM, Amoxapine nM: 0, 12, 50, 199, 797, 3187) 31.6%. Also, the inhibition at 1.324 µM (read-out: percent inhibition of TNFα secretion, Hydrocortisone 1324 nM, Clomipramine nM: 0, 45, 178, 712, 2848, 11000) is 33%. Moreover, the inhibition at 5.297 µM by setting is: (read-out: inhibition of TNFα secretion, Hydrocortisone 5297 nM, Desipramine nM: 0, 50, 200, 799, 3197, 13000) 38.6%; (read-out: inhibition of TNFα secretion, Hydrocortisone 5297 nM, Imipramine nM: 0, 99, 394, 1578, 6311, 25000) 33.8%; (read-out: inhibition of TNFα secretion, Hydrocortisone 5297 nM, Nortriptyline nM: 0, 52, 208, 834, 3336, 13000) 36.5%; (read-out: inhibition of TNFα secretion, Hydrocortisone 5297 nM, Protriptyline nM: 0, 52, 208, 834, 3336, 13000) 38.2%; (read-out: percent inhibition of TNFα secretion, Hydrocortisone 5297 nM, Amitriptyline nM: 0, 50, 199, 796, 3186, 13000) 36.9%; (read-out: percent inhibition of TNFα secretion, Hydrocortisone 5297 nM, Amoxapine nM: 0, 12, 50, 199, 797, 3187) 31.9%. The inhibition at 5.297 µM (read-out: percent inhibition of TNFα secretion, Hydrocortisone 5297 nM, Clomipramine nM: 0, 45, 178, 712, 2848, 11000) stood at 37.1%.
